Here are results for 21 compounds from patent US20250230155A1 (Vanderbilt University, priority 2021, published 2025).

The structures appear in SMILES notation.

The assay concerns the target T1, human mAChR M4 (Homo sapiens, UniProt P08173).
T1 construct: expressed in transfected cells
T1 sequence (P08173 1-479): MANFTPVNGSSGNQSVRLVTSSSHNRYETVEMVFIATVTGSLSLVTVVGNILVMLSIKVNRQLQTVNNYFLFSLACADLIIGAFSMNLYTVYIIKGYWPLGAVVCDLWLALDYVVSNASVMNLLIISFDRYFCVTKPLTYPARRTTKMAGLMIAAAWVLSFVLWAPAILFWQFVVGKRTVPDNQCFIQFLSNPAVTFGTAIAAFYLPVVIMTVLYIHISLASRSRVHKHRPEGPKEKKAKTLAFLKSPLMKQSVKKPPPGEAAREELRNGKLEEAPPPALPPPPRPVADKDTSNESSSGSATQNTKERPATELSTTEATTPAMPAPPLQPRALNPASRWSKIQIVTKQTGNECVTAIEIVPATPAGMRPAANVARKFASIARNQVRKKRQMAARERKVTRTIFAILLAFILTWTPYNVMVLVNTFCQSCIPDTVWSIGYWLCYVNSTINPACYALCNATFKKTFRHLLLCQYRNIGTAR
Kind of assay: mAChR M4 cell-based functional assay (calcium mobilization, CHO-K1 hM4-Gqi5 cells). The settings on record: for Emax at 30 µM: CHO-K1, % ACh maximum at 30 μM, human M4; for EC50: positive allosteric modulator activity, increase in the EC20 acetylcholine response, CHO-K1 hM4-Gqi5 cells, read-out: Human M4 EC50. Here is the method:
Human and rat M4 cDNAs, along with the chimeric G protein Gqi5, were transfected into Chinese hamster ovary (CHO-K1) cells purchased from the American Type Culture Collection using Lipofectamine2000. hM4-Gqi5 cells were grown in Ham's F-12 medium containing 10% heat-inactivated fetal bovine serum (FBS), 20 mM HEPES, 50 μg/mL G418 sulfate, and 500 μg/mL Hygromycin B. rM4-Ggi5 cells were grown in DiVEM containing 10% heat-inactivated FBS, 20 mM THEPES, 400 μμg/mL G418 sulfate, and 500 μμg/mL Hygromycin B.
For high throughput measurement of agonist-evoked increases in intracellular calcium, CHO-K1 cells stably expressing muscarinic receptors were plated in growth medium lacking G418 and hygromycin at 15,000 cells/20 μL/well in Greiner 384-well black-walled, tissue culture (TC)-treated, clear-bottom plates (VWR). Cells were incubated overnight at 37° C. and 5% CO2. The next day, cells were washed using an ELX 405 (BioTek) with assay buffer; the final volume was then aspirated to 20 μL. Next, 20 μL of a […] of Fluo-4/acetoxymethyl ester (Invitrogen, Carlsbad, CA), prepared as a 2.3 mM stock in DMSO and mixed in a 1:1 ratio with 10% (w/v) Pluronic F-127 and diluted in assay buffer, was added to the wells and the cell plates were incubated for 50 min at 37° C. and 5% C02. Dye was removed by washing with the ELX 405 and the final volume was aspirated to 20 μL. Compound master plates were formatted in an 11 point concentration-response curve (CRC) format (1:3 dilutions) in 100% DMSO with a starting concentration of 10 mM using a BRAVO liquid handler (Agilent). Test compound CRCs were then transferred to daughter plates (240 nL) using the Echo acoustic plate reformatter (Labcyte, Sunnyvale, CA) and then diluted into assay buffer (40 μL) to a 2× stock using a Thermo Fisher Combi (Thermo Fisher Scientific, Waltham, MA).
Calcium flux was measured using the Functional Drug Screening System (FDSS) 6000 or 7000 (Hamamatsu Corporation, Tokyo, Japan) as an increase in the fluorescent static ratio. Compounds were applied to cells (20 μL, 2×) using the automated system of the FDSS at 2-4 seconds into the protocol and the data were collected at 1 Hz. At 144 seconds, 10 μL of an EC20 concentration of the muscarinic receptor agonist acetylcholine was added (5×), followed by the addition of 12 μL of an EC80 concentration of acetylcholine at the 230 second time point (5×). Agonist activity was analyzed as a concentration-dependent increase in calcium mobilization upon compound addition. Positive allosteric modulator activity was analyzed as a concentration-dependent increase in the EC20 acetylcholine response. Antagonist activity was analyzed as a concentration-dependent decrease in the EC80 acetylcholine response. Concentration-response curves were generated using a four-parameter logistical equation in XLFit curve fitting software (IDBS, Bridgewater, NJ) for Excel (Microsoft, Redmond, WA) or Prism (GraphPad Software, Inc., San Diego, CA).
Compounds were synthesized as described above. Activity (EC50 and Emax) was determined in the mAChR M4 cell-based functional assay as described above and the data are shown in Table 2. The compound number corresponds to the compound numbers used in Table 1.
In general terms: Calcium flux is commonly read through the fluorescence of an indicator in the cells.

As usually defined, the Emax is the size of the effect at its maximum, as opposed to the concentration needed. As a reminder, the EC50 is the concentration at which the effect is half-maximal.

For `Cc1cc(C(=O)N2CC(C(F)F)C2)nnc1N1CCc2ncc(N3CCCn4nccc43)cc2C1` [Example 524, (3-(difluoromethyl)azetidin-1-yl)(6-(3-(6,7-dihydropyrazolo[1,5-a]pyrimidin-4(5H)-yl)-7,8-dihydro-1,6-naphthyridin-6(5H)-yl)-5-methylpyridazin-3-yl)methanone], the Emax at 30 µM is 93% and the concentration for a half-maximal effect (EC50) is 18 nM. For `Cc1c(Cl)nc(C2CC2)nc1N1CCc2ncc(Nc3ccccc3F)cc2C1` [compound 90, 6-(6-chloro-2-cyclopropyl-5-methyl-pyrimidin-4-yl)-N-(2-fluorophenyl)-7,8-dihydro-5H-1,6-naphthyridin-3-amine], the Emax at 30 µM worked out at 72% and the EC50 was determined as 7600 nM. On the same counts, the results for `Cc1cc(C#N)cnc1N1CCc2ncc(Nc3cc(F)cc(F)c3F)cc2C1` [compound 116, 5-methyl-6-[3-(2,3,5-trifluoroanilino)-7,8-dihydro-5H-1,6-naphthyridin-6-yl]pyridine-3-carbonitrile] are 95% and 336 nM. For the compound `Fc1ncccc1Nc1cnc2c(c1)CN(c1nc(Cl)nc3c1COC3)CC2` [compound 289, 6-(2-chloro-5,7-dihydrofuro[3,4-d]pyrimidin-4-yl)-N-(2-fluoropyridin-3-yl)-5,6,7,8-tetrahydro-1,6-naphthyridin-3-amine], the 50% effective concentration (EC50) was determined as 918 nM. On to `Cc1cc(C(=O)N2CC3CC3C2)nnc1N1CCc2ncc(C(F)(F)F)cc2C1` (centres unmarked) [Example 504, (3-azabicyclo[3.1.0]hexan-3-yl)(5-methyl-6-(3-(trifluoromethyl)-7,8-dihydro-1,6-naphthyridin-6(5H)-yl)pyridazin-3-yl)methanone], for which the Emax at 30 µM was found to be 101% and the EC50 came to 3870 nM.

In the case of `Cc1c(C#N)nnc(N2CCc3ncc(Nc4cccc(Cl)c4F)cc3C2)c1C` [Example 36], the Emax at 30 µM came out at 66% and the EC50 came to 698 nM. For `Cc1cc(C#N)cnc1N1CCc2ncc(-c3ccnc(C4CC4)c3)cc2C1` [Example 339, 6-(3-(2-cyclopropylpyridin-4-yl)-7,8-dihydro-1,6-naphthyridin-6(5H)-yl)-5-methylnicotinonitrile], in that order: 90% and 277 nM.

As to `Cc1cc(C#N)cnc1N1CCc2ncc(N3CCOC(c4cccnc4)C3)cc2C1` (centres unmarked) [Example 389, 5-methyl-6-(3-(2-(pyridin-3-yl)morpholino)-7,8-dihydro-1,6-naphthyridin-6(5H)-yl)nicotinonitrile], the Emax at 30 µM came out at 92% and the 50% effective concentration (EC50) was found to be 942 nM. Take `Cc1cnc2c(c1)CN(c1nnc(C(=O)Nc3ccncc3)c(C)c1C)CC2` [Example 469, 4,5-dimethyl-6-(3-methyl-7,8-dihydro-1,6-naphthyridin-6(5H)-yl)-N-(pyridin-4-yl)pyridazine-3-carboxamide]: the Emax at 30 µM came out at 98% and the concentration for a half-maximal effect (EC50) came out at 114 nM. `Cc1cc(C#N)cnc1N1CCc2ncc(N(C)c3ccnn3C)cc2C1` [Example 331, 5-methyl-6-(3-(methyl(1-methyl-1H-pyrazol-5-yl)amino)-7,8-dihydro-1,6-naphthyridin-6(5H)-yl)nicotinonitrile]: the Emax at 30 µM turned out to be 86% and the EC50 was 43 nM. Take `Cc1cc(C(=O)NCc2ccc3nccnc3c2)cnc1N1CCc2ncccc2C1` [compound 157, 6-(7,8-dihydro-5H-1,6-naphthyridin-6-yl)-5-methyl-N-(quinoxalin-6-ylmethyl)pyridine-3-carboxamide]: the Emax at 30 µM stood at 57% and the half-maximal effective concentration (EC50) worked out at 3480 nM. On to `Cc1cc(Nc2cnc3c(c2)CN(c2nnc(C#N)cc2C)CC3)c(F)cn1` [Example 615, 6-(3-((5-fluoro-2-methylpyridin-4-yl)amino)-7,8-dihydro-1,6-naphthyridin-6(5H)-yl)-5-methylpyridazine-3-carbonitrile], for which the maximal effect (Emax) at 30 µM came to 89% and the EC50 was 11 nM. Consider `Cc1c(C#N)nnc(N2CCc3ncc(Nc4ccccc4Cl)cc3C2)c1C` [compound 39, 6-[3-(2-chloroanilino)-7,8-dihydro-5H-1,6-naphthyridin-6-yl]-4,5-dimethyl-pyridazine-3-carbonitrile], for which the Emax at 30 µM came to 73% and the EC50 came to 239 nM. On the same counts, the results for `Cc1cc(C#N)cnc1N1CCc2ncc(-c3cc(F)cc(F)c3C)cc2C1` [Example 597, 6-(3-(3,5-difluoro-2-methylphenyl)-7,8-dihydro-1,6-naphthyridin-6(5H)-yl)-5-methylnicotinonitrile] are 69% and 2870 nM. On the same counts, the results for `Cc1cc(C#N)cnc1N1CCc2ncc(-c3cccnc3)cc2C1` [compound 191, 5-methyl-6-[3-(3-pyridyl)-7,8-dihydro-5H-1,6-naphthyridin-6-yl]pyridine-3-carbonitrile] are 98% and 187 nM. As for `Cc1cc(C(=O)NCc2csc3ccccc23)cnc1N1CCc2ncc(C(F)(F)F)cc2C1` [Example 447, N-(benzo[b]thiophen-3-ylmethyl)-5-methyl-6-(3-(trifluoromethyl)-7,8-dihydro-1,6-naphthyridin-6(5H)-yl)nicotinamide], the maximal effect (Emax) at 30 µM stood at 97% and the EC50 came out at 1640 nM. Consider `[2H]C1([2H])Cc2ncc(Nc3ccncc3C)cc2C([2H])([2H])N1c1nnc(C#N)c(C)c1C` [Example 609, 4,5-dimethyl-6-(3-((3-methylpyridin-4-yl)amino)-7,8-dihydro-1,6-naphthyridin-6(5H)-yl-5,5,7,7-d4)pyridazine-3-carbonitrile], for which the Emax at 30 µM worked out at 56% and the EC50 turned out to be 753 nM.

In the case of `Cc1cc(C(=O)N2CC(F)(F)C2)nnc1N1CCc2ncc(N3CCCn4nccc43)cc2C1` [Example 544, (3,3-difluoroazetidin-1-yl)(6-(3-(6,7-dihydropyrazolo[1,5-a]pyrimidin-4(5H)-yl)-7,8-dihydro-1,6-naphthyridin-6(5/)-yl)-5-methylpyridazin-3-yl)methanone], the Emax at 30 µM amounted to 105% and the EC50 is 45 nM. For the compound `Cc1cc(C#N)cnc1N1CCc2ncc(Nc3ccncc3F)cc2C1` [Example 599, 6-(3-((3-fluoropyridin-4-yl)amino)-7,8-dihydro-1,6-naphthyridin-6(5H)-yl)-5-methylnicotinonitrile], the maximum response (Emax) at 30 µM turned out to be 96% and the EC50 came out at 7 nM. On the same counts, the results for `COc1cc(-c2cnc3c(c2)CN(c2ncc(C#N)cc2C)CC3)ccn1` [Example 338, 6-(3-(2-methoxypyridin-4-yl)-7,8-dihydro-1,6-naphthyridin-6(5H)-yl)-5-methylnicotinonitrile] are 91% and 315 nM.

`COc1cnccc1CNC(=O)c1cc(C)c(N2CCc3ncc(C(F)(F)F)cc3C2)nn1` [Example 495, N-((3-methoxypyridin-4-yl)methyl)-5-methyl-6-(3-(trifluoromethyl)-7,8-dihydro-1,6-naphthyridin-6(5H)-yl)pyridazine-3-carboxamide]: the Emax at 30 µM amounted to 102% and the concentration for a half-maximal effect (EC50) was found to be 43 nM.
